According to patent US20140378515A1, “IMMUNOSUPPRESSIVE COMPOUNDS” (priority 2013, published 2014):

How the values were obtained:
[1] = tested on: IL-2 production; assay: IL-2 production by PHA/PMA stimulated PBMCs (ELISA); type: cell-based, human; details: experimental IL-2 IC50 listed in Table 3
Protocol: The PBMCs were cultured in a 96-well flat-bottomed plate (1.0×10^5 cell/well) in the presence or absence of three concentrations of test compounds (1.0, 5.0 and 20 μg/mL), and phytohemagglutinin (PHA) phorbol myristate acetate (PMA) in a final concentration of 5 ng/mL and 20 ng/mL, respectively. After an incubation period of 18 h at 37° C. in a humidified atmosphere of 5% CO2 in air, the supernatant was collected for IL-2 determination. Interleukin-2 levels were measured by using enzyme-linked immunosorbent assay (ELISA) development kit (R&D systems, Minneapolis, Minn., USA). The assay was performed according to the manufacturer's instructions. Briefly, a 96-well flat-bottomed ELISA plate was coated with 4.0 μg/mL mouse anti-human IL-2, in PBS, pH 7.4. Then, re-combinant human IL-2 standards and culture supernatant samples were added and incubated for 2 h followed by washing steps and then the addition of biotinylated goat anti-human IL-2. After an incubation period of 2 h at room temperature, the plates were again washed and streptavidin conjugated horse raddish peroxidase was added and incubated for additional 20 min at room temperature. After the final washes, an enzyme substrate solution of H2O2 and tetra methyl benzidine (1:1 v/v) was added and the color was allowed to develop at room temperature in the dark. The plates were then read at 450 nm in a plate reader (DIAReader GMBH, Wr. Neudorf, Austria). The results were analyzed using Microsoft Excel.

[2] = tested on: ROS produced by human blood phagocytes; assay: Oxidative burst, luminol-enhanced chemiluminescence in whole blood; type: cell-based; details: serum opsonized zymosan
Protocol: Formation of the reactive oxygen species (ROS) in whole blood, during the oxidative burst was measured by the luminol-enhanced chemiluminescence assay. In brief, three concentrations of each compound (1.0, 10 and 100 μg/mL) were prepared in 25 μL of Hank's Balanced salt solution containing calcium chloride and magnesium sulfate (HBSS^++) in a half area 96-well white flat-bottomed plate (Sigma Aldrich, Steinheim, Germany) in a final volume of 100 μL. Then 25 μL of whole blood diluted 1:50 in suspension of HBSS^++ was added.
Positive and negative controls and blank wells were included. Cells and compounds were incubated for 30 minutes at 37° C., then 25 μL luminol [3-aminophthalhydrazide] (Research Organics Cleveland, Ohio, USA), were added into each well followed by 25 μL of serum opsonized zymosan (Saccharomyces cerevisiae origin) purchased from Fluka, Buchs (Switzerland) was added except for negative and blank wells. The ROS chemiluminescence kinetic was monitored with a luminometer from Labsystems (Helsinki, Finland), for 50 minutes in the repeated scan mode. Peak and total integral chemiluminescence readings were expressed in the relative light unit.

[3] = tested on: 3T3 NIH mouse embryo fibroblast cell line
Protocol: The 3T3-NIH cells were suspended in Dulbecco's Modified Eagle's Medium (DMEM) formulated with 10% FBS. Using flat bottomed plates, cells were plated at a concentration of 6×10^4 cells/mL and incubated for 24 h at 37° C. and 5% CO2 environment. […] Following exposure to each compound, cell viability was assessed by using 0.5 mg/mL of MTT {3-(4,5-dimethylthiazol-2-yl)-2,5-diphenyltetrazolium bromide for 4 h followed by the removal of supernatant and addition of DMSO to solubilize the formazan complex. The plates were read at 540 nm after one minute shaking and readings were processed using MS Excel software. The results were expressed as means±SD of triplicate readings.

[4] = tested on: T-cell proliferation; assay: T-cell proliferation assay (PHA-stimulated PBMNCs, 3H-thymidine incorporation); type: cell-based, human; set-up: unit not given here; details: PHA 5 μg/mL stimulated PBMNCs
Protocol: The diluted blood was then layered onto lymphocyte separation medium (MP Biomedicals, Inc., Ohio, USA) and centrifuged at 400 g for 20 min at 25° C. […] Plates were then incubated at 37° C. in a humidified atmosphere of 5% CO2 in air for 72 hours. To each well, 0.5 μCi [methyl ^3H]-thymidine (Amersham Place Little Chalfont, Buckinghamshire, UK) was added for an additional 18 hours. Cells were harvested using a cell harvester (Inotech, Dottikon, Switzerland), and incorporation and level of radioactivity was measured by a liquid scintillation counter (Beckman coulter, LS 6500, Fullerton, Calif., USA).

[5] = tested on: NO produced by mouse macrophages J774.2 cell line; assay: Nitrite accumulation in LPS-stimulated J774.2 macrophages (Griess method); type: cell-based; details: LPS-stimulated J774.2, 24 hours
Protocol: The mouse macrophage cell line J774.2 obtained from ECACC, Salisbury, Wiltshire (UK) was cultured in T75 flasks in complete DMEM containing 10% fetal bovine serum and supplemented with 1% streptomycin/penicillin. Flasks were kept at 37° C. in the atmosphere of humidified air containing 5% CO2. Cell were then seeded in 24 well (10^6 cells/mL) and nitric oxide synthase (NOS-2) in the macrophages was induced by addition of 20 μg/mL E. coli lipopolysaccharide (DIFCO Laboratories, Michigan, USA). The test compounds were added at a concentration of 25 μg/mL soon after LPS stimulation and incubated at 37° C. in 5% CO2. Cell culture supernatant was collected after 24 hours. Nitrite accumulation in J774.2 cell culture supernatant was measured using the Griess method, where 50 μL of 1% sulphanilamide in 2.5% phosphoric acid, followed by 50 μL of 0.1% naphtyl-ethylene diamine dihydrochloride in 2.5% phosphoric acid were added to 50 μL culture medium. After 10 minutes of incubation at room temperature the absorbance at 550 nm was read. Micromolar concentrations of nitrite were calculated from standard curve constructed with sodium nitrite a reference compound. The results were expressed as means±SD of duplicate readings.

## COc1cccc(-c2nc3ccccc3s2)c1O [Compound 2]
[1]
  IC50: <1 µg/mL
[2]
  IC50 (μg/mL) for phagocytes ROS: 1.9 ± 0.6 µg/mL
[3]
  Cytotoxicity IC50: >25 µg/mL
[4]
  IC50 T-cell proliferation: 2.97±0.3
[5]
  % of NO inhibited by 25 μg/mL of compound: 28.9 ± 1.3%
